Measured values published in paper PMC4559881 (Molecular Neurodegeneration, 2015).

Tests used:
Aβ40 = test: Dog PK/PD study: Aβ40 in CSF and plasma; type: in vivo
Method: The mean (± SD) level of Aβ40 in the CSF prior to dosing was 5991 ± 1199 pg/ml (2 sampling times -24 h and -1 h, n = 7), and the predose plasma Aβ40 level was 261 ± 13 pg/ml (mean ± SD, n = 4, -1 h). […] All dogs responded strongly to the treatment, CSF Aβ40 was reduced by approximately 80 % from 12 to 48 h post dose and slowly returned to baseline (Fig. 3b). […] Furthermore, the available data were used for a calculation of the Aβ40 clearance rate from dog CSF.
Aβ38, 40 and 42 were determined using the electro-chemiluminescence immuno assay kits from Meso Scale Discovery (Rockville, MD, USA) in either singlet or triplex format. Samples and standards were prepared according to the manufactures protocols. The kit based on the antibody 4G8 was used for rat forebrain and CSF samples, and kits based on 6E10 were used for dog CSF or plasma and APP51/16 brain and CSF samples. Soluble APPα and sAPPβ from APP51/16 mice were determined from the 100000xg supernatant and analyzed with Meso Scale Discovery commercial kits. C-terminal fragments C83 and C99 were determined from Western blots. Forebrain homogenates dephosphorylated with lambda protein phosphatase as described and run on a 10 % Tris-bicine gel with 8 M urea. After transfer to Immobilon P membranes (Bio-Rad Bedford MA USA), bands were probed with APP C8 antibody (recognizing the C-terminus of APP) and detected with goat anti-mouse IgG Fab fragment AlexaFluor680 (Invitrogen). The same gel was used to visualize Aβ1-38, 1-40, and 1-42 using the N-terminal antibody beta1 and goat anti rabbit IgG IRdye 800CW (Odyssey). Full-length human APP was detected using an in house immunoassay based on the MSD ECL system as described.

[1] = Octanol/water distribution coefficient; type: physicochemical; conditions: derived from apparent permeability across an artificial liquid membrane
Method: The octanol/water distribution coefficient was derived from the apparent permeability across an artificial liquid membrane. The PAMPA assay was done as described. MDCK cells overexpressing human p-glycoprotein (MDR1-MDCK cells, obtained from Prof. A. Berns, Netherlands Cancer Institute) were grown on HTS Multiwell plates, 1 μm pore size (Becton Dickinson). After formation of a tight monolayer, NB-360 was applied to either the upper or the lower chamber. After one hour, liquid was removed from the upper and lower chambers and analyzed by HPLC-MS. Apical-to-basolateral and basolateral-to-apical transport rates were calculated.

SweAPP CHO cells = test: Aβ40 release from Swedish human APP751 CHO cells; conditions: Cricetulus griseus, 24 h, read-out: IC50 Aβ40 release
APP51/16 transgenic mice = test: Chronic 6-week treatment of APP51/16 mice: APP metabolites, Aβ deposition and neuroinflammation; type: in vivo, mouse; conditions: relative to vehicle-treated mice
[2] = Dog PK/PD study: NB-360 exposure in blood and CSF; type: in vivo; conditions: male, Beagle, blood, po, 0.5 mg/kg p.o.
Method: Blood and CSF were sampled before treatment (at -24 and at -1 h) and at various time points after oral dosing, up to 168 h.
(§1) Brain samples were homogenized with 2 mM KH2PO4 buffer (approx. 1/2, w/v). […] The LLOQ ranged between 0.4 and 2 ng/mL in blood and 1.2 ng/g and 6 ng/g in brain.
Rat studies used male Charles River Sprague-Dawley rats of approx. 300 g body weight. Female transgenic APP51/16 mice (C57BL/6 background strain) were bred in-house. APP51/16 mice express human wild-type APP751 under the control of a Thy-1 expression cassette in brain neurons, and are characterized by mostly cortical, but few vascular amyloid-β deposits. […] Dosing was per os in a dose volume of 10 ml/kg for mice and 5 ml/kg for rats. […] Rodents were deeply anesthetized for CSF sampling from the cisterna magna, accessed through the exposed atlanto-occipital membrane. CSF was harvested into protein lo-bind Eppendorf tubes and frozen on dry ice. Animals were decapitated while anesthetized and blood and brain samples collected. Brains were briefly rinsed in PBS, quickly wet-dissected and samples frozen on a metal plate precooled on dry ice. All samples were stored at -80 ° C until analysis. The dog study was carried out at Charles River Laboratories, Canada. Male dogs were used with n = 4 per group. A cannula with an access port was implanted under anesthesia, to allow serial CSF sampling from the lateral ventricle. […]

[3] = Chronic 6-week treatment of APP51/16 mice: NB-360 blood exposure; conditions: female, APP51/16 (C57BL/6 background), mouse, po, 100 μmol/kg
Method: as §1
Rat studies used male Charles River Sprague-Dawley rats of approx. 300 g body weight. Female transgenic APP51/16 mice (C57BL/6 background strain) were bred in-house. APP51/16 mice express human wild-type APP751 under the control of a Thy-1 expression cassette in brain neurons, and are characterized by mostly cortical, but few vascular amyloid-β deposits. […] Dosing was per os in a dose volume of 10 ml/kg for mice and 5 ml/kg for rats. […] Rodents were deeply anesthetized for CSF sampling from the cisterna magna, accessed through the exposed atlanto-occipital membrane. CSF was harvested into protein lo-bind Eppendorf tubes and frozen on dry ice. Animals were decapitated while anesthetized and blood and brain samples collected. Brains were briefly rinsed in PBS, quickly wet-dissected and samples frozen on a metal plate precooled on dry ice. All samples were stored at -80 ° C until analysis. The dog study was carried out at Charles River Laboratories, Canada. Male dogs were used with n = 4 per group. A cannula with an access port was implanted under anesthesia, to allow serial CSF sampling from the lateral ventricle. Dogs were allowed to recover from the surgery for 2 weeks before the start of the experiment.

[4] = Pharmacokinetics after i.v. and oral application, beagle dog
Method: Pharmacokinetic studies used male Sprague Dawley rats, C57BL6 mice and Beagle dogs, obtained from Charles River (France, rodents) and Marshall (Italy, dogs). […] Blood was collected i.v., by sublingual bleeding or at sacrifice whereas a serial blood sampling allowed obtaining individual PK profiles in these species. Blood samples were taken between 5 min (intravenous) and 15 min (oral) up to 24 h (mice), 48 h (rat) and 408 h (dog).
The absorption and disposition parameters were estimated by a non-compartmental analysis of the mean blood concentration (n = 3 mice) or individual concentration (rats, dogs) versus time profile after oral and intravenous administration.

[5] = Dissociation constant (pKa); type: physicochemical

Cc1cc(C#N)cnc1C(=O)Nc1ccc(F)c([C@]2(C)CO[C@@](C)(C(F)(F)F)C(N)=N2)c1 [NB-360]
time to reach the maximum effect on CSF Aβ (Aβ40; 1.1 μmol/kg (0.5 mg/kg)): around 12 h
time at which CSF Aβ40 reached baseline (Aβ40; 0.5 mg/kg p.o.): about 120 h
Plasma Aβ40 change (Aβ40; 0.5 mg/kg p.o., after 1 h): -42%
Plasma Aβ40 change (Aβ40; 0.5 mg/kg p.o., after 12 h): -70%
CSF Aβ40 reduction (Aβ40; 0.5 mg/kg p.o., from 12 to 48 h post dose): approximately 80%
IC50 (Aβ40; Canis lupus familiaris, read-out: in vivo IC50 of NB-360 in blood for the reduction of Aβ40 in CSF, PK/PD modelling): 0.059 ± 0.013 µM
Aβ reduction, approximate area under the effect curve over a 24 h period (Aβ40; from the values at 12 and 36 h): 70-75%
logP [1]: 3.7
IC50 (SweAPP CHO cells): 0.033 µM
number of GFAP positive cell clusters in the cortex (APP51/16 transgenic mice): substantially lower
concentration at 168 h [2]: 0.023 ± 0.031 µM
concentration at 4 h [3]: 3.2 µM
concentration at 24 h [3]: 0.13 µM
Vol. of Distribution ([4]; 2 μmol/kg i.v.): 0.9 L/kg
clearance ([4]; Beagle, blood, iv, 2 umol/kg): 0.024 L/h/kg
half-life ([4]; Beagle, blood, iv, 2 umol/kg): 36.2 h
bioavailability ([4]; Beagle, blood, po, 2 umol/kg): 62%
pKa [5]: 7.1
